Tested on: Atrial natriuretic peptide receptor 1 (Oryctolagus cuniculus)
Experiment: Binding affinity towards the low-affinity site atrionatriuretic peptide receptor 1 of rabbit adrenal membrane

SMILES | KL [nM]
CC[C@H](C)[C@@H]1NC(=O)[C@@H](CCCN=C(N)N)NC(=O)CNC(=O)CNC(=O)[C@@H](Cc2ccccc2)NC(=O)C(C)NC(=O)[C@H](NC(=O)[C@H](CO)NC(=O)[C@@H](N)CO)CSSC[C@H](C(=O)N2CC(C(=O)N[C@H](CCCN=C(N)N)C(=O)O)Cc3ccccc32)NC(=O)[C@@H]([C@@H](C)CC)NC(=O)[C@H](CCCN=C(N)N)NC(=O)[C@@H](CC(=O)O)NC1=O (stereo in doubt) | 960
CC[C@H](C)[C@@H]1NC(=O)[C@@H](CCCN=C(N)N)NC(=O)CNC(=O)CNC(=O)[C@@H](Cc2ccccc2)NC(=O)C(C)NC(=O)[C@H](N)CSSC[C@H](C(=O)N[C@H](Cc2ccccc2)C(=O)N[C@H](CCCN=C(N)N)C(=O)O)NC(=O)[C@@H]([C@@H](C)CC)NC(=O)[C@H](CCCN=C(N)N)NC(=O)[C@@H](CC(=O)O)NC1=O (stereo in doubt) | 2700
CC[C@H](C)[C@@H]1NC(=O)[C@@H](CCCN=C(N)N)NC(=O)CNC(=O)CNC(=O)[C@@H](Cc2ccccc2)NC(=O)C(C)NC(=O)[C@H](NC(=O)CCCCN)CSSC[C@H](C(=O)N[C@H](Cc2ccccc2)C(=O)N[C@H](CCCN=C(N)N)C(=O)O)NC(=O)[C@@H]([C@@H](C)CC)NC(=O)[C@H](CCCN=C(N)N)NC(=O)[C@@H](CC(=O)O)NC1=O (stereo in doubt) | 280
CC[C@H](C)[C@@H]1NC(=O)[C@@H](CCCN=C(N)N)NC(=O)CNC(=O)CNC(=O)[C@@H](C2CCCCC2)NC(=O)[C@H](NC(=O)[C@H](N)CCCN=C(N)N)CSSC[C@H](C(=O)O)NC(=O)[C@@H](CCCN=C(N)N)NC(=O)[C@H](C)NC(=O)[C@@H]([C@@H](C)CC)NC(=O)[C@H](CCCN=C(N)N)NC(=O)[C@@H](CC(=O)O)NC1=O | 280
CC[C@H](C)[C@@H]1NC(=O)[C@H](CCCN=C(N)N)NC(=O)[C@@H](CC(=O)O)NC(=O)[C@H]([C@@H](C)CC)NC(=O)[C@H](CCCNC(N)=O)NC(=O)CNC(=O)CNC(=O)[C@@H](Cc2ccccc2)NC(=O)[C@@H](C)NC(=O)[C@@H](NC(=O)[C@H](CO)NC(=O)[C@@H](N)CO)CSSC[C@@H](C(=O)N[C@H](Cc2ccccc2)C(=O)N[C@H](CCCN=C(N)N)C(=O)O)NC1=O | 6900
CC[C@H](C)[C@@H]1NC(=O)[C@@H](CCCN=C(N)N)NC(=O)CNC(=O)CNC(=O)[C@@H](Cc2ccccc2)NC(=O)CCNC(=O)[C@H](NC(=O)[C@H](CO)NC(=O)[C@@H](N)CO)CSSC[C@H](C(=O)N[C@H](Cc2ccccc2)C(=O)N[C@H](CCCN=C(N)N)C(=O)O)NC(=O)[C@@H]([C@@H](C)CC)NC(=O)[C@H](CCCN=C(N)N)NC(=O)[C@@H](CC(=O)O)NC1=O | 6500
CC[C@H](C)[C@@H]1NC(=O)[C@@H](CCCN=C(N)N)NC(=O)CNC(=O)CNC(=O)[C@@H](Cc2ccccc2)NC(=O)CNC(=O)[C@H](NC(=O)[C@H](CO)NC(=O)[C@@H](N)CO)CSSC[C@H](C(=O)N[C@H](Cc2ccccc2)C(=O)N[C@H](CCCN=C(N)N)C(=O)O)NC(=O)[C@@H]([C@@H](C)CC)NC(=O)[C@H](CCCN=C(N)N)NC(=O)[C@@H](CC(=O)O)NC1=O | 410
CC[C@H](C)[C@@H]1NC(=O)[C@@H](CCCN=C(N)N)NC(=O)CNC(=O)CNC(=O)[C@@H](Cc2ccccc2)NC(=O)[C@H](C2CCCCC2)NC(=O)[C@H](NC(=O)[C@H](CO)NC(=O)[C@@H](N)CO)CSSC[C@H](C(=O)N[C@H](Cc2ccccc2)C(=O)N[C@H](CCCN=C(N)N)C(=O)O)NC(=O)[C@@H]([C@@H](C)CC)NC(=O)[C@H](CCCN=C(N)N)NC(=O)[C@@H](CC(=O)O)NC1=O | 180
CC[C@H](C)[C@@H]1NC(=O)[C@@H](CCCN=C(N)N)NC(=O)CNC(=O)CNC(=O)[C@@H](Cc2ccccc2)NC(=O)[C@H](NC(=O)[C@@H](CO)NC(=O)[C@H](N)CO)CSSC[C@H](C(=O)O)NC(=O)[C@@H](CCCN=C(N)N)NC(=O)[C@H](Cc2ccccc2)NC(=O)[C@@H]([C@@H](C)CC)NC(=O)[C@H](CCCN=C(N)N)NC(=O)[C@@H](CC(=O)O)NC1=O | 790
CC[C@H](C)[C@@H]1NC(=O)[C@@H](CCCN=C(N)N)NC(=O)CNC(=O)CNC(=O)[C@@H](C2CCCCC2)NC(=O)[C@H](NC(=O)[C@H](N)CCCN=C(N)N)CSSC[C@H](C(=O)O)NC(=O)[C@@H](CCCN=C(N)N)NC(=O)[C@H](Cc2ccccc2)NC(=O)[C@@H]([C@@H](C)CC)NC(=O)[C@H](CCCN=C(N)N)NC(=O)[C@@H](CC(=O)O)NC1=O | 460
CC[C@H](C)[C@@H]1NC(=O)[C@H](CCCN=C(N)N)NC(=O)[C@@H](CC(=O)O)NC(=O)[C@H]([C@@H](C)CC)NC(=O)[C@@H](CCCN=C(N)N)NC(=O)CNC(=O)CNC(=O)[C@@H](Cc2ccccc2)NC(=O)C(C)NC(=O)[C@@H](NC(=O)[C@H](CO)NC(=O)[C@@H](N)CO)CSSC[C@@H](C(=O)N2C[C@@H](C(=O)N[C@H](CCCN=C(N)N)C(=O)O)Cc3ccccc32)NC1=O (stereo in doubt) | 540
CC[C@H](C)[C@@H]1NC(=O)[C@@H](CCCN=C(N)N)NC(=O)CNC(=O)CNC(=O)[C@@H](Cc2ccccc2)NC(=O)C(C)NC(=O)[C@H](NC(=O)[C@@H](N)CCCCN)CSSC[C@H](C(=O)N[C@H](Cc2ccccc2)C(=O)N[C@H](CCCN=C(N)N)C(=O)O)NC(=O)[C@@H]([C@@H](C)CC)NC(=O)[C@H](CCCN=C(N)N)NC(=O)[C@@H](CC(=O)O)NC1=O (stereo in doubt) | 390
CC[C@H](C)[C@@H]1NC(=O)[C@@H](CCCCN)NC(=O)CNC(=O)CNC(=O)[C@@H](C2CCCCC2)NC(=O)CCSSC[C@H](C(N)=O)NC(=O)[C@@H](CCCN=C(N)N)NC(=O)[C@H](Cc2ccccc2)NC(=O)[C@@H]([C@@H](C)CC)NC(=O)[C@H](CCCN=C(N)N)NC(=O)[C@@H](CC(=O)O)NC1=O | 150
CC[C@H](C)[C@@H]1NC(=O)[C@@H](CCCN=C(N)N)NC(=O)CNC(=O)CNC(=O)[C@@H](Cc2ccccc2)NC(=O)C(C)NC(=O)[C@H](NC(=O)CCCCCCCN)CSSC[C@H](C(=O)N[C@H](Cc2ccccc2)C(=O)N[C@H](CCCN=C(N)N)C(=O)O)NC(=O)[C@@H]([C@@H](C)CC)NC(=O)[C@H](CCCN=C(N)N)NC(=O)[C@@H](CC(=O)O)NC1=O (stereo in doubt) | 790
CC[C@H](C)[C@@H]1NC(=O)[C@@H](CCCN=C(N)N)NC(=O)CNC(=O)CNC(=O)[C@@H](Cc2ccccc2)NC(=O)C(C)NC(=O)[C@H](NC(=O)[C@@H](N)CCCN=C(N)N)CSSC[C@H](C(=O)N[C@H](Cc2ccccc2)C(=O)N[C@H](CCCN=C(N)N)C(=O)O)NC(=O)[C@@H]([C@@H](C)CC)NC(=O)[C@H](CCCN=C(N)N)NC(=O)[C@@H](CC(=O)O)NC1=O (stereo in doubt) | 240
CC[C@H](C)[C@@H]1NC(=O)[C@@H](CCCN=C(N)N)NC(=O)CNC(=O)CNC(=O)[C@@H](Cc2ccccc2)NC(=O)CNC(=O)[C@H](NC(=O)[C@H](CO)NC(=O)[C@@H](N)CO)CSSC[C@H](C(=O)N2CCC[C@@H]2C(=O)N[C@H](CCCN=C(N)N)C(=O)O)NC(=O)[C@@H]([C@@H](C)CC)NC(=O)[C@H](CCCN=C(N)N)NC(=O)[C@@H](CC(=O)O)NC1=O | 440
CC[C@H](C)[C@@H]1NC(=O)[C@@H](CCCN=C(N)N)NC(=O)CNC(=O)CNC(=O)[C@@H](Cc2cc(I)c(O)c(I)c2)NC(=O)[C@H](NC(=O)[C@H](N)CCCN=C(N)N)CSSC[C@H](C(N)=O)NC(=O)[C@@H](CCCN=C(N)N)NC(=O)[C@H](Cc2ccccc2)NC(=O)[C@@H]([C@@H](C)CC)NC(=O)[C@H](CCCN=C(N)N)NC(=O)[C@@H](CC(=O)O)NC1=O | 1700
CC[C@H](C)[C@@H]1NC(=O)[C@@H](CCCN=C(N)N)NC(=O)[C@@H](C)NC(=O)[C@@H](C)NC(=O)[C@@H](C2CCCCC2)NC(=O)[C@H](NC(=O)[C@H](N)CCCN=C(N)N)CSSC[C@H](C(N)=O)NC(=O)[C@@H](CCCN=C(N)N)NC(=O)[C@H](Cc2ccccc2)NC(=O)[C@@H]([C@@H](C)CC)NC(=O)[C@H](CCCN=C(N)N)NC(=O)[C@@H](CC(=O)O)NC1=O | 200
CC[C@H](C)[C@@H]1NC(=O)[C@@H](CCCN=C(N)N)NC(=O)CNC(=O)CNC(=O)[C@@H](C2CCCCC2)NC(=O)CCSSC[C@H](C(N)=O)NC(=O)[C@@H](CCCN=C(N)N)NC(=O)[C@H](Cc2ccccc2)NC(=O)[C@@H]([C@@H](C)CC)NC(=O)[C@H](CCCN=C(N)N)NC(=O)[C@@H](CCC(=O)O)NC1=O | 430
CC[C@H](C)[C@@H]1NC(=O)[C@@H](CCCN=C(N)N)NC(=O)CNC(=O)CNC(=O)[C@@H](C2CCCCC2)NC(=O)[C@H](N)CSSC[C@H](C(N)=O)NC(=O)[C@@H](CCCN=C(N)N)NC(=O)[C@H](Cc2ccccc2)NC(=O)[C@@H]([C@@H](C)CC)NC(=O)[C@H](C)NC(=O)[C@@H](CC(=O)O)NC1=O | 8900
CC[C@H](C)[C@@H]1NC(=O)[C@@H](CCCN=C(N)N)NC(=O)CNC(=O)CNC(=O)[C@H](Cc2ccccc2)NC(=O)[C@H](NC(=O)[C@H](CO)NC(=O)[C@@H](N)CO)CSSC[C@H](C(=O)N[C@H](Cc2ccccc2)C(=O)N[C@H](CCCN=C(N)N)C(=O)O)NC(=O)[C@@H]([C@@H](C)CC)NC(=O)[C@H](CCCN=C(N)N)NC(=O)[C@@H](CC(=O)O)NC1=O | 2000
CC[C@H](C)[C@@H]1NC(=O)[C@@H](CCCN=C(N)N)NC(=O)CNC(=O)CNC(=O)[C@@H](Cc2ccccc2)NC(=O)[C@@H](C)NC(=O)[C@H](NC(=O)[C@H](CO)NC(=O)[C@@H](N)CO)CSSC[C@H](C(=O)N[C@H](Cc2ccccc2)C(=O)N[C@H](CCCN=C(N)N)C(=O)O)NC(=O)[C@@H]([C@@H](C)CC)NC(=O)[C@H](C)NC(=O)[C@@H](CC(=O)O)NC1=O | 7100
CC[C@H](C)[C@@H]1NC(=O)[C@@H](CCCN=C(N)N)NC(=O)C2CCC(CC2)NC(=O)C2CCC(CC2)NC(=O)[C@@H](Cc2ccccc2)NC(=O)C(C)NC(=O)[C@H](NC(=O)[C@H](CO)NC(=O)[C@@H](N)CO)CSSC[C@H](C(=O)N[C@H](Cc2ccccc2)C(=O)N[C@H](CCCN=C(N)N)C(=O)O)NC(=O)[C@@H]([C@@H](C)CC)NC(=O)[C@H](CCCN=C(N)N)NC(=O)[C@@H](CC(=O)O)NC1=O (stereo in doubt) | 1000
CC[C@H](C)[C@@H]1NC(=O)[C@@H](CCCN=C(N)N)NC(=O)CNC(=O)CNC(=O)[C@@H](Cc2ccccc2)NC(=O)[C@H](NC(=O)[C@H](CO)NC(=O)[C@@H](N)CO)CSSC[C@H](C(=O)N[C@H](Cc2ccccc2)C(=O)N[C@H](CCCN=C(N)N)C(=O)O)NC(=O)[C@@H]([C@@H](C)CC)NC(=O)[C@H](CCCN=C(N)N)NC(=O)[C@@H](CC(=O)O)NC1=O | 4400
